Assay results published in patent US9441003B2, “Membrane staining dyes containing phosphorescent transition metal polypyridine complexes” (City University of Hong Kong, priority 2014, dated 2016).

What was measured:
Type in all cases: cell-based
MCF-7 cells [1] = assay: Confocal microscopy imaging of MCF-7 cells treated with complexes; details: 50 μM, 37° C., 1 h, excitation 405 nm
Description: (§1) Experiments were conducted to show the working of the staining dye of the present invention. HeLa and MCF-7 cells were grown on sterile glass coverslips in a 60-mm tissue culture dish and incubated at 37° C. under a 5% CO2 atmosphere for 48 h. The culture medium was removed and replaced with medium/DMSO (99:1, v/v) containing the complex at a concentration of 50 μM. After incubation for 1 h, the coverslips were washed with PBS (5 mL×3), and then mounted onto slides for measurements. Imaging was performed using a confocal microscope (Leica TCS SPE) with an excitation wavelength at 405 nm. The emission was measured using a long-pass filter at 532 nm. FIG. 6 illustrates experimental results with fluorescence laser-scanning confocal microscopy images of HeLa cells treated with complexes (50 μM) at 37° C. for 1 h. FIG. 7 illustrates experimental results with fluorescence laser-scanning confocal microscopy images of MCF-7 cells treated with complexes (50 μM) at 37° C. for 1 h.

HeLa cells = assay: Confocal microscopy imaging of HeLa cells treated with complexes; details: 50 μM, 37° C., 1 h, excitation 405 nm
Description: as §1

MCF-7 cells [2] = assay: Co-staining with CellMask deep red plasma membrane stain; details: complex 50 μM 1 h, CellMask deep red plasma membrane stain 0.25 μL/ml 5 min
Description: Further experiments were conducted to co-stain cells with the complex [Ir(ppyCH2NH—C10)2(bpy-tris)]Cl and the CellMask™ deep red plasma membrane stain. […] Please see FIG. 8 showing fluorescence laser-scanning confocal microscopy images of MCF-7 cells treated with the bpy-tris complex (50 μM, 1 h) and the CellMask™ deep red plasma membrane stain (0.25 μL/ml, 5 min).

Compound | cellular staining pattern (membrane staining / localization) (MCF-7 cells [1]) | cellular staining pattern (membrane staining / localization) (HeLa cells) | colocalization coefficient (MCF-7 cells [2]) [%]
Cc1ccnc(-c2cc(C(=O)O)ccn2)c1 [bpy-COOH] | much better membrane staining | much better membrane staining | 
[Ir(ppyCH2NH—C10)2(bpy-tris)]Cl | much better membrane staining | much better membrane staining | 92.9
